Active and inactive are the calls of the source. No rule for the calls is given here.
Tested on: CCRIS mutagenicity, Ames/micronucleus/aberration tests
Assay: CCRIS mutagenicity studies
Settings: Method: PREINCUBATION

Measured: mutagenic call

C=CC(=O)NCO
inactive: Test System: AMES SALMONELLA TYPHIMURIUM, Strain/Indicator: TA97, Metabolic Activation: HAMSTER, LIVER, S-9, AROCLOR 1254 (10%) inactive; negative | Test System: AMES SALMONELLA TYPHIMURIUM, Strain/Indicator: TA97, Metabolic Activation: HAMSTER, LIVER, S-9, AROCLOR 1254 (10 OR 30%) inactive; negative | Test System: AMES SALMONELLA TYPHIMURIUM, Strain/Indicator: TA97, Metabolic Activation: HAMSTER, LIVER, S-9, AROCLOR 1254 (30%) inactive; negative | Test System: AMES SALMONELLA TYPHIMURIUM, Strain/Indicator: TA97, Metabolic Activation: NONE inactive; negative | Test System: AMES SALMONELLA TYPHIMURIUM, Strain/Indicator: TA97, Metabolic Activation: RAT, LIVER, S-9, AROCLOR 1254 (10% OR 30%) inactive; negative | Test System: AMES SALMONELLA TYPHIMURIUM, Strain/Indicator: TA97, Metabolic Activation: RAT, LIVER, S-9, AROCLOR 1254 (10 OR 30%) inactive; negative | Test System: AMES SALMONELLA TYPHIMURIUM, Strain/Indicator: TA98, Metabolic Activation: HAMSTER, LIVER, S-9, AROCLOR 1254 (10% OR 30%) inactive; negative | Test System: AMES SALMONELLA TYPHIMURIUM, Strain/Indicator: TA98, Metabolic Activation: HAMSTER, LIVER, S-9, AROCLOR 1254 (10 OR 30%) inactive; negative | Test System: AMES SALMONELLA TYPHIMURIUM, Strain/Indicator: TA98, Metabolic Activation: NONE inactive; negative | Test System: AMES SALMONELLA TYPHIMURIUM, Strain/Indicator: TA98, Metabolic Activation: RAT, LIVER, S-9, AROCLOR 1254 (10% OR 30%) inactive; negative | Test System: AMES SALMONELLA TYPHIMURIUM, Strain/Indicator: TA98, Metabolic Activation: RAT, LIVER, S-9, AROCLOR 1254 (10 OR 30%) inactive; negative | Test System: AMES SALMONELLA TYPHIMURIUM, Strain/Indicator: TA98, Metabolic Activation: RAT, LIVER, S-9, PHENOBARBITAL AND BETA-NAPHTHOFLAVONE inactive; negative | Test System: AMES SALMONELLA TYPHIMURIUM, Strain/Indicator: TA100, Metabolic Activation: HAMSTER, LIVER, S-9, AROCLOR 1254 (10% OR 30%) inactive; negative | Test System: AMES SALMONELLA TYPHIMURIUM, Strain/Indicator: TA100, Metabolic Activation: HAMSTER, LIVER, S-9, AROCLOR 1254 (10 OR 30%) inactive; negative | Test System: AMES SALMONELLA TYPHIMURIUM, Strain/Indicator: TA100, Metabolic Activation: NONE inactive; negative | Test System: AMES SALMONELLA TYPHIMURIUM, Strain/Indicator: TA100, Metabolic Activation: RAT, LIVER, S-9, AROCLOR 1254 (10% OR 30%) inactive; negative | Test System: AMES SALMONELLA TYPHIMURIUM, Strain/Indicator: TA100, Metabolic Activation: RAT, LIVER, S-9, AROCLOR 1254 (10 OR 30%) inactive; negative | Test System: AMES SALMONELLA TYPHIMURIUM, Strain/Indicator: TA100, Metabolic Activation: RAT, LIVER, S-9, PHENOBARBITAL AND BETA-NAPHTHOFLAVONE inactive; negative | Test System: AMES SALMONELLA TYPHIMURIUM, Strain/Indicator: TA102, Metabolic Activation: NONE inactive; negative | Test System: AMES SALMONELLA TYPHIMURIUM, Strain/Indicator: TA102, Metabolic Activation: RAT, LIVER, S-9, PHENOBARBITAL AND BETA-NAPHTHOFLAVONE inactive; negative | Test System: AMES SALMONELLA TYPHIMURIUM, Strain/Indicator: TA104, Metabolic Activation: NONE inactive; negative | Test System: AMES SALMONELLA TYPHIMURIUM, Strain/Indicator: TA104, Metabolic Activation: RAT, LIVER, S-9, PHENOBARBITAL AND BETA-NAPHTHOFLAVONE inactive; negative | Test System: AMES SALMONELLA TYPHIMURIUM, Strain/Indicator: TA1535, Metabolic Activation: HAMSTER, LIVER, S-9, AROCLOR 1254 (10% OR 30%) inactive; negative | Test System: AMES SALMONELLA TYPHIMURIUM, Strain/Indicator: TA1535, Metabolic Activation: HAMSTER, LIVER, S-9, AROCLOR 1254 (10 OR 30%) inactive; negative | Test System: AMES SALMONELLA TYPHIMURIUM, Strain/Indicator: TA1535, Metabolic Activation: NONE inactive; negative | Test System: AMES SALMONELLA TYPHIMURIUM, Strain/Indicator: TA1535, Metabolic Activation: RAT, LIVER, S-9, AROCLOR 1254 (10% OR 30%) inactive; negative | Test System: AMES SALMONELLA TYPHIMURIUM, Strain/Indicator: TA1535, Metabolic Activation: RAT, LIVER, S-9, AROCLOR 1254 (10 OR 30%) inactive; negative | Test System: AMES SALMONELLA TYPHIMURIUM, Strain/Indicator: TA1535, Metabolic Activation: RAT, LIVER, S-9, PHENOBARBITAL AND BETA-NAPHTHOFLAVONE inactive; negative | Test System: AMES SALMONELLA TYPHIMURIUM, Strain/Indicator: TA1537, Metabolic Activation: NONE inactive; negative | Test System: AMES SALMONELLA TYPHIMURIUM, Strain/Indicator: TA1537, Metabolic Activation: RAT, LIVER, S-9, PHENOBARBITAL AND BETA-NAPHTHOFLAVONE inactive; negative | Test System: E. COLI, Strain/Indicator: WP2UVRA/PKM101, Metabolic Activation: NONE inactive; negative | Test System: E. COLI, Strain/Indicator: WP2UVRA/PKM101, Metabolic Activation: RAT, LIVER, S-9, PHENOBARBITAL AND BETA-NAPHTHOFLAVONE inactive; negative | Test System: E. COLI, Strain/Indicator: WP2UVRA, Metabolic Activation: NONE inactive; negative | Test System: E. COLI, Strain/Indicator: WP2UVRA, Metabolic Activation: RAT, LIVER, S-9, PHENOBARBITAL AND BETA-NAPHTHOFLAVONE inactive; negative
